In data set [1] the test system is myosin VII positive hair cells. Particulars: mouse, in vivo.
Method: Briefly, mice were treated with an injection of neomycin 10^−3 M into the scala tympani. After 5 days animals were re-anesthetized and 1 μl of Ad.math1.11d (108 pu) were delivered via a fenestration in the posterior semicircular canal. After 4 weeks, animals were sacrificed and then processed for myosin VII immunohistochemistry.
The conditions of data set [2]: mouse, in vivo.
From the text: As a screening test for balance function, mice were swim tested by dropping them from a fixed height into an opaque pool of water. […] Animals with impaired vestibular function are known to have to prolonged swim times. Mice were swim tested two months after aminoglycoside ablation followed by no treatment or treatment with Ad math1.11D.
For another data set, the system named is vestibular hair cells. Briefly: Vestibular hair cell counts after intracochlear neomycin and adenovector atoh1 delivery. Particulars: aminoglycoside (neomycin 10^-3 M, 2 μl into inner ear) only, n=5; untreated controls 21.8+2.
For data set [3], the system named is mouse saccule and utricle cultures. Briefly: Phage display panning of mouse saccule and utricle cultures, sequencing of colonies. Particulars: colonies with this sequence among one hundred colonies sequenced after four rounds of panning. The format is binding. The method, then: C57B1/6 Mice were purchased from Jackson Laboratory (Bar Harbour, Me.). At 8 weeks of age the mice were sacrificed and saccule and utricles were isolated under direct visualization. The cells were cultured in 100 μl DMEM/0.001 M neomycin for 48 hours as is standard. All animal protocols were approved by the University of Kansas animal research advisory committee.
A phage library (New England Biolabs, Beverly, Mass.) displaying random 7-mer peptides attached to the NH2-terminus of the pIII protein of the filamentous M13 bacteriophage was used for panning with mouse inner ear cells. In round 1 of panning, 2×10^11 plaque-forming units of the phage library in 200 μl of 1×PBS buffer were added to the inner ear cells and were incubated for 4 h at 4° C. with shaking. The cells were washed 10× with Tris-buffered saline/0.1% Tween under direct visualization and the remaining bound phage were eluted for 10 min with 100 μl of 0.2 M glycine-HCl, pH 2.2, and neutralized with 15 μl of 1 M Tris-HCl, pH 9. A 10 μl aliquot was used for tittering and the remaining eluate was used to infect early log phase ER2738 host bacteria in 20 ml LB media and amplified for 4.5 h at 37° C. with shaking. Bacteria were removed by pellet centrifugation 2×10 min at 10,000 g. The supernantant was added to ⅙ quantity 20% (w/v) polyethylene glycol-8000, 2.5 M NaCl. After overnight incubation at 4° C., the phage was pelleted by centrifugation at 15 min at 10,000 g, and resuspended in 200 μl TBS. Amplified phage product was tittered on X-gal/IPTG plates. A 10 μl aliquot from the phage pool was used to titer phage pfu/μl before and after phage amplification in E. coli. In subsequent rounds 2×10^11 plaque-forming units of the amplified phage pool from the previous round were added to mouse inner ear cells and panned was performed as previously described. All panning experiments were performed in duplicate.
After 4 rounds of panning, isolated colonies were streak plated on X-gal/IPTG plates. Individual colonies were used to infect early log phase ER2738 host bacteria in 4 ml LB media and amplified for 4.5 h at 37° C. The bacteria was pelleted by centrifugation and phage recovered from the supernatant using QIAprep Spin M13 kit (Qiagen, Valencia, Calif.) and resuspended in 50 μl molecular grade water. ssDNA quantity was determined by absorption spectrophotometry. The 7-mer peptide DNA coding regions were sequenced using a −96 gIII sequencing primer (5′-CCCTCATAGTTAGCGTAACG-3′). These sequences were translated and queried on the BLAST protein database (NCBI).
One hundred colonies were sequenced (Table 1). There were 23 colonies which translated to the peptide sequence t-v-p-q-l-t-t, which was homologous to the protein laminin. Eleven colonies which translated to the peptide sequence s-t-t-k-l-a-l, which was homologous to a sodium/hydrogen exchanger protein. Eight colonies which translated to the peptide sequence m-e-g-y-i-h-r, which was homologous to the protein cathepsin L. Two colonies each that translated to the peptide sequences h-a-i-y-p-r-h, h-s-r-l-l-d-q, i-q-s-p-h-f-f and y-a-a-h-r-s-h, which were homologous to the proteins itchy 3, discs large homolog, protocadherin and myelin transcription factor 1, respectively. The remaining colony sequences occurred only once, however within these sequences, several translated to peptides that had homology to the same protein. For example, a-h-p-h-h-s-m and h-p-h-h-r-i-f both contained the peptide sequence h-p-h-h with homology to mitogen activated protein kinase 8.

The subject of a further data set is Organ of Corti. The data set is described as follows: Immunohistochemistry identification of phage binding regions in mouse inner ear (Organ of Corti). The data set is classed as in vivo. The conditions noted are these: phage 1×10^9 pfu injected into round window of neomycin-treated mice, anti-M13 immunostaining 1 hour after inoculation. As to the method: (§1) Candidate 7-mer peptide epitopes were selected from the BLAST queried sequences. Colonies were amplified in 20 ml LB media and recovered as previously described. Phage (1×10^9 pfu) were injected into the round window of mice previously treated with 1 μl 0.01 M neomycin injected into the posterior channel 48 hours prior to phage innoculation. Mice were sacrificed by intracardiac perfusion with 4% PBS buffered paraformaldehyde 1 hour after phage inoculation. The temporal bones were isolated and decalcified in Calex (Fisher Scientific, Pittsburgh, Pa.) for 24 hours. The temporal bones were embedded in paraffin and sectioned. Primary antibody directed against the M13 protein (rabbit anti-M13) in 1/100 concentration was added to tissue samples and allowed to incubate for 12 hrs at 4° C. The samples were washed in PBS and incubated with 1/50 concentration fluorescent secondary antibody (goat anti-rabbit, FITC) for 12 hrs at 4° C. After washing, tissue sections were visualized and photographed via fluorescent microscopy.
To determine the potential for identified peptide sequences to bind […] be purified individual batches of phage and injected them into the perilymph via the round window. The animals were allowed to recover and were then fixed via perfusion. Sections of the inner ear were immunostained for the presence phage to determine if the phage had been able to localize to supporting cells in vivo. […] The most common pattern of distribution that was seen was binding to the basement membrane.

The test system of a further data set is Macular Organs. The data set is described as follows: Immunohistochemistry identification of phage binding regions in mouse inner ear (Macular Organs). The format is in vivo. Particulars: phage 1×10^9 pfu injected into round window of neomycin-treated mice, anti-M13 immunostaining 1 hour after inoculation. The method, then:
as §1
To determine the potential for identified peptide sequences to bind in vitro be purified individual batches of phage and injected them into the perilymph via the round window. The animals were allowed to recover and were then fixed via perfusion. […]

No end group written: not given here.

Method for vestibular hair cells: Characterization of atoh1/math1 effects were as follows. Unilateral vestibular damage was induced by injecting 2 μl of neomycin (10^−3 M) in to the inner ear of mice. After inducing unilateral vestibular dysfunction mice received an intracochlear injection of an advanced generation adenovector carrying atoh1 driven by a human CMV promoter (Admath1.11D) via the round window membrane into the scala tympani. […] After one month recovery, animals were sacrificed and processed for histology. […] Cells were identified by position of the nucleus and every fifth section was counted and expressed as cell number per 100 μm length of neuroepithelium.

In the case of `NC[C@@H]1O[C@H](O[C@H]2[C@@H](O)[C@H](O[C@@H]3[C@@H](O)[C@H](N)C[C@H](N)[C@H]3O[C@H]3O[C@H](CN)[C@@H](O)[C@H](O)[C@H]3N)O[C@@H]2CO)[C@H](N)[C@@H](O)[C@@H]1O` [aminoglycoside, neomycin], the “myosin VII positive cells in macular organs” value in data set [1] is listed as “only occasional myosin VII positive cells”. Besides, the “swim time (time to initiate purposeful swimming)” value in data set [2] was 22+4.2 seconds. For the same compound, in the data set with vestibular hair cells, the “average hair cell counts, serially sectioned saccules” value is given as 2.2+2 /100 μm. Consider “ALQYHNL [phage pIII NH2 terminal 7 amino acid peptide]”, for which the “# of Common Sequences” value in data set [3] is given as 1. In the data set with Organ of Corti, the “Phage binding site, Organ of Corti” value is recorded as “No binding”. For “HPHHRIF [phage pIII NH2 terminal 7 amino acid peptide]” the same measures were 1 and “No binding”. On to “HisAlaIleTyrProArgHis (HAIYPRH; printed: HisAlaIleTyrProArgHis) [phage pIII NH2 terminal 7 amino acid peptide]”, for which the “# of Common Sequences” value in data set [3] is given as 2.

Regarding “MPIPRPP [phage pIII NH2 terminal 7 amino acid peptide]”, the “# of Common Sequences” value in data set [3] is 1.

PPRPIPM: the “Phage binding site, Organ of Corti” value with Organ of Corti was “No binding”. Regarding ProThrProMeThrLeuTyr, the “Phage binding site, Macular Organs” value in the data set with Macular Organs is reported as “No binding”. On to “SEGRLYK [phage pIII NH2 terminal 7 amino acid peptide]”, for which the “# of Common Sequences” value in data set [3] stood at 1. Besides, the “Phage binding site, Organ of Corti” value with Organ of Corti is “No binding”. On the same counts, the results for “SNQLLMT [phage pIII NH2 terminal 7 amino acid peptide]” are 1 and “No binding”. On the same counts, the results for “STTKLAL [phage pIII NH2 terminal 7 amino acid peptide]” are 11 and “No binding”.

With “THQARSV [phage pIII NH2 terminal 7 amino acid peptide]”, the “# of Common Sequences” value in data set [3] was 1. The “Phage binding site, Organ of Corti” value in the data set with Organ of Corti is “No binding”. For “ahphhsm: phage pIII NH2 terminal 7 amino acid peptide (AHPHHSM)”, in data set [3], the “# of Common Sequences” value is reported as 1. With getrapl, the “# of Common Sequences” value in data set [3] came out at 1. Same read-out and setting: with “hsrlldq: phage pIII NH2 terminal 7 amino acid peptide (HSRLLDQ)” the figure was 2. Turning to “iqsphff: phage pIII NH2 terminal 7 amino acid peptide (IQSPHFF)”, in data set [3], the “# of Common Sequences” value came to 2. Consider “megyihr: phage pIII NH2 terminal 7 amino acid peptide (MEGYIHR)”, for which the “# of Common Sequences” value in data set [3] worked out at 8. On the same count and under the same terms, with “tvpqltt: phage pIII NH2 terminal 7 amino acid peptide (TVPQLTT)” the figure was 23; with “yaahrsh: phage pIII NH2 terminal 7 amino acid peptide (YAAHRSH)”, 2.

These data come from US20130096070A1, “PEPTIDE TARGETING OF INNER EAR CELLS” (priority 2009, published 2013).
